Assay results from US12161657B2, “Combinatorial therapy for use in inducing immunogenic cell death in cancer cells” (priority 2021, dated 2024).

Experiments:
[1] = test system: THP-1 (human myelomonocytic cancer); assay: MTS cell viability assay, THP-1 cells; type: cell-based; details: 48 hours, individual drug, read-out: ED50 in THP-1
Procedure: (§1) The 50% effective dose (or ED50) for 2-DG, MTX, and WGN (individually) against the cancer cell lines 4T1 (mouse breast cancer), MCF-7 (human breast cancer), THP-1 (human myelomonocytic cancer), and B16-F10 (mouse melanoma) was determined (Table 1). The cell lines were specifically chosen for their extremely aggressive nature. For example, the cell lines have evolved multiple mechanisms of resistance to cell death and are highly metastatic (e.g., equivalent to a stage 4 cancer model). In this assay, a Determination of the ED50 using the MTS cell viability assay
(§2) Analysis of the effects of MTX-2DG-WGN combination on cell growth was performed with an MTS kit (CellTiter 96® AQueous One Solution Cell Proliferation Assay Kit, Promega, Madison, WI, USA) according to the manufacturer's instruction. […] Absorbance readings were taken in an Epoch microplate reader at 490 nm. […] Cell viability was calculated by the following formula: Cell viability (%)=(average OD in treated group/average OD in control group)×100%. […]
(§3) The EC50 was extrapolated from the dose-response graph. The drug concentration that caused 50% maximum effect with regards to cytotoxicity was determined by plotting triplicate data points over a concentration range and calculating values using regression analysis of GraphPad PRISM v8 program. […]

[2] = test system: dihydrofolate reductase (DHFR); details: cited from earlier work
[3] = test system: MCF-7 (human breast cancer); assay: MTS cell viability assay, MCF-7 cells; type: cell-based; details: for EC50: Homo sapiens, MCF7, MTS, 48 hours, individual drug, read-out: ED50 in MCF-7; for efficacy in killing cancer cells: MCF7, concentration 6× lower than the ED50 concentrations, FIG. 3b
Procedure: as §1
(§4) Analysis of the effects of MTX-2DG-WGN combination on cell growth was performed with an MTS kit (CellTiter 96® AQueous One Solution Cell Proliferation Assay Kit, Promega, Madison, WI, USA) according to the manufacturer's instruction. 4-T1, MCF-7, B16-F10, and THP-1 cells were seeded into 96-well plates at a density of 10×10^3 cells per well with three replicates. The cells were treated as indicated (MTX, 2DG, and WGN were added initially at concentrations of 100 μM, 50 mM, and 200 μM, respectively, followed by serial two-fold dilutions) and incubated for 48 hours at 5% CO2 at 37° C. After 48 h, 20 μL of CellTiter 96® AQueous One Solution MTS (5 mg/mL) (Promega—Madison, WI, USA) was added to each well and incubated at 5% CO2 at 37° C. for an additional 4 hours. Absorbance readings were taken in an Epoch microplate reader at 490 nm. Computed data was compared to untreated and normalized cells. Cells that were not administered any treatment were considered the control group. Cell viability was calculated by the following formula: Cell viability (%)=(average OD in treated group/average OD in control group)×100%. A dose-activity curve with the concentration spectrum was prepared.
(§5) The EC50 was extrapolated from the dose-response graph. The drug concentration that caused 50% maximum effect with regards to cytotoxicity was determined by plotting triplicate data points over a concentration range and calculating values using regression analysis of GraphPad PRISM v8 program.
(§6) MTX, 2-DG, and WGN were tested alone and in combination. […] The combination of all 3 compounds was also tested, along with a negative control (untreated). The results are shown for 4T1 mouse breast cancer cells (FIG. 3a) and MCF7 human breast cancer cells (FIG. 3b).
(§7) The testing protocol was the same as that described for the ED50 noted above.

[4] = test system: 4T1 (mouse breast cancer); assay: MTS cell viability assay, 4T1 cells; type: cell-based; details: for efficacy in killing cancer cells: 4T1, concentration 6× lower than the ED50 concentrations, FIG. 3a; for EC50: Mus musculus, 4T1, MTS, 48 hours, individual drug, read-out: ED50 in 4T1
Procedure: as §1, §4, §5, §6, §7

B16-F10 (mouse melanoma) = assay: MTS cell viability assay, B16-F10 cells; type: cell-based; details: 48 hours, individual drug, read-out: ED50 in B16-F10
Procedure: as §1, §2, §3

[5] = test system: 4T1 mouse breast cancer cells 3D cancerspheres; assay: 3D cancersphere viability, 4T1; type: cell-based; details: 4T1 cancerspheres, 48 h treatment; doxorubicin 25 μM, FIGS. 7a, 7b
Procedure: (§8) A new model for tumor growth in vitro has been established as 3D cultures known as cancerspheres. To evaluate the clinical translatability and predictivity of the novel combinatorial therapy in vivo, 3D cancerspheres suspended in media containing extracellular matrix proteins (ECM) were treated with the combination of MTX, 2-DG, and WGN.
(§9) Mammary tumorspheres were grown using Matrigel® Extracellular Matrix Basement Membrane (Corning, USA). […]
(§10) After 8 days of culture and 48 h treatment, tumorspheres of roughly 50 cells or more were selected for qualitative analysis. […] After 5 min, tumorspheres were analyzed microscopically. […] Dead (non-viable) spheroids were characterized as stained and displaying no luminescence.
(§11) On the 8th day of culture, media from MCF-7 and 4-T1 mammary tumorsphere cultures was changed and cells were then treated with either our novel combinatorial therapy or 25 μM doxorubicin. […] Absorbance readings were taken in an Epoch microplate reader at 490 nm. […] Cell viability was calculated by the following formula: Cell viability (%)=(average OD in treated group/average OD in control group)×100%.

[6] = test system: MCF-7 human breast cancer cells 3D cancerspheres; assay: 3D cancersphere viability, MCF-7; type: cell-based; details: MCF-7 cancerspheres, 48 h treatment; doxorubicin 25 μM, FIGS. 7c, 7d
Procedure: as §8, §9, §10, §11

[7] = 2-DG administration, patients; cited from earlier work
[8] = 2-DG used alone; cited from earlier work

EC50 [1] [µM]	EC50 [3] [µM]	EC50 [4] [µM]	EC50 (B16-F10 (mouse melanoma)) [µM]	SMILES	affinity for DHFR relative to folate [2]	efficacy in killing cancer cells [3]	efficacy in killing cancer cells [4]	efficacy against 3D cancerspheres [5]	efficacy against 3D cancerspheres [6]	doses at which adverse effects occur [7]	concentration needed to be effective when used alone [8] [mM]
1.82	0.049	0.049	0.019	CN(Cc1cnc2nc(N)nc(N)c2n1)c1ccc(C(=O)N[C@@H](CCC(=O)O)C(=O)O)cc1 [MTG, Methotrexate]	about 1000 fold	no effect whatsoever	no effect whatsoever				
83	20.2	85	76	COc1c(O)cc(O)c2c(=O)cc(-c3ccccc3)oc12 [WGN, Wogonin]		no effect whatsoever	no effect whatsoever				
				COc1cccc2c1C(=O)c1c(O)c3c(c(O)c1C2=O)C[C@@](O)(C(=O)CO)C[C@@H]3O[C@H]1C[C@H](N)[C@H](O)[C@H](C)O1 [doxorubicin]				resistant	resistant		
				OCC1O[C@H](O)C[C@@H](O)[C@@H]1O (mixture of isomers) [2-DG, 2-deoxyglucose]		no effect whatsoever	no effect whatsoever			above 63 mg/kg	> 5
